Source: US20130045969A1, “PLANT DISEASE CONTROLLING COMPOSITION AND METHOD FOR CONTROLLING PLANT DISEASE” (SUMITOMO CHEMICAL COMPANY, LIMITED, priority 2010, published 2013)

Test system: gray mold fungus (Botrytis cinerea)
Experiment: Cucumber leaf disk preventive test against gray mold
Type: in vivo
Conditions: single compound, 15° C., four days
Experimental: True leaf of cucumber is punched out with cork borer to 13 mm in diameter to prepare a leaf disk. In 24 well microwell plate that is dispensed with 1 ml 0.8% water agar, the leaf disk is placed such that the upper side of the leaf is in an upward direction. Thereto is added 20 micro liter a testing solution prepared by mixing a dimethyl sulfoxide solution of the present compound (racemate) and a dimethyl sulfoxide solution of trifloxystrobin or pyribencarb to a predetermined concentration to treat the leaf disk. After confirming that the testing medical solution is dried, conidium of gray mold fungus (Botrytis cinerea) is suspended into potato dextrose broth (DIFCO) in a density of about 10^5 conidium/mL and is then subjected to a spray inoculation. After leaving to stand the leaf disk in a growth chamber set up at 15° C. for four days, an onset area on the leaf is measured and then calculated an onset area rate (hereinafter, referred to as an onset area rate of treated group). The same operation is carried out with 20 micro liter water instead of 20 micro liter a testing medicine solution to calculate an onset area rate (hereinafter, referred to an onset area rate of non-treated group). A preventive value is calculated from the above onset area rate of treated group and the onset area rate of non-treated group by the following equation: Preventive value (%)=100×(A−B)/A […] The same operations as described in Test Example 1 are carried out with azoxystrobin, dimoxystrobin, fluoxastrobin, kresoxim-methyl, metominostrobin, orysastrobin, picoxystrobin or pyraclostrobin instead of trifloxystrobin or pyribencarb, so as to calculate respective preventive values. Also for comparison, the same operations as described in Test Example 1 are carried out with the exception that the testing medicine solution is substituted with a predetermined concentration of each dimethyl sulfoxide solution of the present compound (racemate), azoxystrobin, dimoxystrobin, fluoxastrobin, kresoxim-methyl, metominostrobin, orysastrobin, picoxystrobin or pyraclostrobin, so as to calculate respective preventive values. For comparison, the same operations as described in Test Example 1 are carried out with the exception that the testing medicine solution is substituted with a predetermined concentration of each dimethyl sulfoxide solution of trifloxystrobin or pyribencarb, so as to calculate respective preventive values.

[1] = treatment concentration 0.5 ppm
[2] = treatment concentration 5.0 ppm

For `CNC(=O)/C(=N/OC)c1ccccc1CO/N=C(C)/C(=N/OC)C(/C)=N/OC` [orysastrobin], the “preventive value (%)” value [1] was 10% and the “preventive value (%)” value [2] was 25%.
With `CNC(=O)/C(=N/OC)c1ccccc1COc1cc(C)ccc1C` [dimoxystrobin] the “preventive value (%)” value [1] was 48% and the “preventive value (%)” value [2] was 57%.
In the case of `CO/C=C(/C(=O)OC)c1ccccc1Oc1cc(Oc2ccccc2C#N)ncn1` [azoxystrobin], the “preventive value (%)” value [1] is reported as 43% and the “preventive value (%)” value [2] is reported as 53%.
In the case of `CNC(=O)/C(=N/OC)c1ccccc1Oc1ccccc1` [metominostrobin], the “preventive value (%)” value [1] is reported as 10% and the “preventive value (%)” value [2] is reported as 20%.
With `CON=C(C(=O)OC)c1ccccc1CON=C(C)c1cccc(C(F)(F)F)c1` [trifloxystrobin] the “preventive value (%)” value [1] was 10% and the “preventive value (%)” value [2] was 20%.
For `CO/C=C(/C(=O)OC)c1ccccc1COc1cccc(C(F)(F)F)n1` [picoxystrobin], the “preventive value (%)” value [1] was 10% and the “preventive value (%)” value [2] was 30%.
In the case of `COC(=O)N(OC)c1ccccc1COc1ccn(-c2ccc(Cl)cc2)n1` [pyraclostrobin], the “preventive value (%)” value [1] is reported as 15% and the “preventive value (%)” value [2] is reported as 35%.
For `COC(=O)NCc1cc(/C(C)=N/OCc2cccc(C)n2)ccc1Cl` [pyribencarb], the “preventive value (%)” value [1] was 42% and the “preventive value (%)” value [2] was 58%.
In the case of `CO/N=C(/C(=O)OC)c1ccccc1COc1ccccc1C` [kresoxim-methyl], the “preventive value (%)” value [1] is reported as 47% and the “preventive value (%)” value [2] is reported as 52%.
`CO/N=C(/C1=NOCCO1)c1ccccc1Oc1ncnc(Oc2ccccc2Cl)c1F` [fluoxastrobin] was tested, and the “preventive value (%)” value [1] was 43% and the “preventive value (%)” value [2] was 52%.
